Literature values, collected in patent publication US20240016743A1, “A METHOD FOR PRODUCING ENTACAPONE TABLETS” (CHINA MEHECO KANGLI PHARMA CO., LTD, priority 2021, published 2024).

Settings: clinical trials

SMILES: N[C@@H](Cc1ccc(O)c(O)c1)C(=O)O [levodopa]
- prolong the "On" time: 16%
- shorten the "Off" time: 24%
